Experiments:
Test in all cases: relative viability (nuclei count vs DMSO), 5 days (fraction); higher = more cells survive
AZ505 + Luminespib = compound: C1CCC(CC1)N(CCNCCC2=C3C(=C(C=C2)O)NC(=O)CO3)C(=O)CCNCCC4=CC(=C(C=C4)Cl)Cl [AZ505] + CCNC(=O)c1noc(-c2cc(C(C)C)c(O)cc2O)c1-c1ccc(CN2CCOCC2)cc1 [Luminespib] (partner 0.01 µM)
Summary of the method: (§1)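 Nuclei were stained with Hoechst during a one-step fixation (final 0.05% Triton X-100, 1% formaldehyde, 1 ug/ml Hoechst) carried out 5 days after dosing, then counted on 4× images. The cells, lung cancer lines in 1536-well plates, had been dosed by pin tool the day after seeding with one drug alone or a fixed anchor-drug dose plus five library-drug doses (not always all listed) in √10 steps. Relative viability is the nuclei count in treated wells divided by that in vehicle wells, and each value is the median of duplicate plates.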

AZ505 + Olaparib = compound: C1CCC(CC1)N(CCNCCC2=C3C(=C(C=C2)O)NC(=O)CO3)C(=O)CCNCCC4=CC(=C(C=C4)Cl)Cl [AZ505] + O=C(c1cc(Cc2n[nH]c(=O)c3ccccc23)ccc1F)N1CCN(C(=O)C2CC2)CC1 [Olaparib] (partner 8 µM)
Summary of the method: as §1

Dactolisib + Pictilisib = compound: Cn1c(=O)n(-c2ccc(C(C)(C)C#N)cc2)c2c3cc(-c4cnc5ccccc5c4)ccc3ncc21 [Dactolisib] + CS(=O)(=O)N1CCN(Cc2cc3nc(-c4cccc5[nH]ncc45)nc(N4CCOCC4)c3s2)CC1 [Pictilisib] (partner 1 µM)
Summary of the method: as §1

Dactolisib + AZD7762 = compound: Cn1c(=O)n(-c2ccc(C(C)(C)C#N)cc2)c2c3cc(-c4cnc5ccccc5c4)ccc3ncc21 [Dactolisib] + NC(=O)Nc1cc(-c2cccc(F)c2)sc1C(=O)N[C@H]1CCCNC1 [AZD7762] (partner 0.2 µM)
Summary of the method: as §1

Cell Line	relative viability (AZ505 + Luminespib; first compound 0.08 µM)	relative viability (AZ505 + Luminespib; first compound 0.253 µM)	relative viability (AZ505 + Luminespib; first compound 0.8 µM)	relative viability (AZ505 + Luminespib; first compound 2.53 µM)	relative viability (AZ505 + Luminespib; first compound 8 µM)	relative viability (AZ505 + Olaparib; first compound 0.08 µM)	relative viability (AZ505 + Olaparib; first compound 0.8 µM)	relative viability (AZ505 + Olaparib; first compound 2.53 µM)	relative viability (AZ505 + Olaparib; first compound 8 µM)	relative viability (Dactolisib + Pictilisib; first compound 0.002 µM)	relative viability (Dactolisib + Pictilisib; first compound 0.006325 µM)	relative viability (Dactolisib + Pictilisib; first compound 0.02 µM)	relative viability (Dactolisib + Pictilisib; first compound 0.06325 µM)	relative viability (Dactolisib + Pictilisib; first compound 0.2 µM)	relative viability (Dactolisib + AZD7762; first compound 0.002 µM)	relative viability (Dactolisib + AZD7762; first compound 0.006325 µM)	relative viability (Dactolisib + AZD7762; first compound 0.02 µM)	relative viability (Dactolisib + AZD7762; first compound 0.06325 µM)	relative viability (Dactolisib + AZD7762; first compound 0.2 µM)	relative viability (AZ505 + Olaparib; first compound 0.253 µM)
NCI-H2405	0.598	0.474	0.586	0.597	0.474	0.742	0.758	0.788	0.828	0.343	0.475	0.423	0.311	0.278	0.773	0.768	0.674	0.48	0.253	–
LCLC-97TM1	0.774	0.853	0.836	0.749	0.871	0.326	0.369	–	0.595	0.252	0.151	0.169	0.145	0.12	0.197	0.325	0.291	0.18	0.135	0.471
NCI-H596	0.928	0.917	0.976	0.992	0.965	0.743	0.704	0.722	0.598	0.373	0.348	0.383	0.352	0.299	1.21	1.03	0.946	0.774	0.396	–
NCI-H727	0.319	0.336	0.328	–	0.421	0.653	0.667	0.724	0.662	0.275	0.339	0.396	0.212	0.227	–	0.519	0.468	0.47	0.45	0.675

— the supplement of paper PMC10307832
